Our source for the T/C values is PubChem BioAssay AID292 (DTP/NCI, 2004).

Molecules are shown by their SMILES. Where “and” joins values, the source holds several entries; their conditions need not be identical. Equal values may be shown once. Inconclusive results and toxic doses are left out.

This assay deals with B6C3F1 mice, ip Sarcoma M5076, median survival T/C. The experiment in a line: NCI In Vivo Anticancer Drug Screen. Data for tumor model Sarcoma M5076 (intraperitoneal) in B6C3F1 mice. The following applies: endpoint: median survival time, schedule: Q04DX004 (ip), higher = longer survival. Put shortly:
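Transplantable tumour in mice; compound-treated vs vehicle-treated groups. Read-out: survival. Value = treated/control ratio.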

[1] abbreviates: dose: 50.0 mg/kg/injection, vehicle: saline with Tween-80.
[2] abbreviates: dose: 100.0 mg/kg/injection, vehicle: saline with Tween-80.
The mark [3] stands for this setting: dose: 200.0 mg/kg/injection, vehicle: saline with Tween-80.
The mark [4] stands for this setting: dose: 400.0 mg/kg/injection, vehicle: saline with Tween-80.

Regarding `O=C1C(=O)N(c2cccc(Cl)c2)C(=O)N1Cc1ccccc1`, the T/C is 102 % of control (dose: 43.75 mg/kg/injection, vehicle: Klucel (hydroxypropylcellulose) (HPC)); 97 % of control (dose: 87.5 mg/kg/injection, vehicle: Klucel (hydroxypropylcellulose) (HPC)); 92 % of control (dose: 175.0 mg/kg/injection, vehicle: Klucel (hydroxypropylcellulose) (HPC)); 94 % of control (dose: 350.0 mg/kg/injection, vehicle: Klucel (hydroxypropylcellulose) (HPC)); 88 % of control (dose: 700.0 mg/kg/injection, vehicle: Klucel (hydroxypropylcellulose) (HPC)).

Take `NC(=O)C1C=CN(Cc2ccccc2)C=C1`: the T/C is, setting by setting: under setting [1], 111 % of control; under setting [2], 116 % of control; under setting [3], 106 % of control.

Take `CN(C)CCCN=c1c2ccccc2n(C)c2[nH]c(=O)n(C)c(=O)c12`: the T/C runs as follows: (dose: 7.5 mg/kg/injection, vehicle: saline) 101 % of control; (dose: 15.0 mg/kg/injection, vehicle: saline) 99 % of control; (dose: 30.0 mg/kg/injection, vehicle: saline) 102 % of control.

On to `COc1cc2c(c3c1c(=O)c1ccccc1n3C)C=C([N+](=O)[O-])C(C)(C)O2`, for which the T/C reads like this: (dose: 25.0 mg/kg/injection, vehicle: saline + Tween-80 + alcohol) 104 % of control; (dose: 50.0 mg/kg/injection, vehicle: saline + Tween-80 + alcohol) 90 % of control.

Take `Cc1c(O)/c(=C\O)c2nc3c(=O)ccc(C(=O)NCCN(C)C)c3[nH]c2c1=O`: the T/C is, setting by setting: (dose: 25.0 mg/kg/injection, vehicle: water) 100 % of control; (dose: 50.0 mg/kg/injection, vehicle: water) 107 % of control; (dose: 100.0 mg/kg/injection, vehicle: water) 107 % of control; (dose: 200.0 mg/kg/injection, vehicle: water) 112 % of control.

As for `NCCCN=c1ccc2c3c1c(O)c1c(O)ccc(=O)c1c3[nH]n2CCNCCO`, the T/C by setting is: (dose: 8.0 mg/kg/injection, vehicle: water) 171 % of control; (dose: 16.0 mg/kg/injection, vehicle: water) 186 % of control.

As for `COc1cc2c(c3c1/c(=N/N)c1ccccc1n3C)C=CC(C)(C)O2`, the T/C (dose: 25.0 mg/kg/injection, vehicle: saline with Tween-80) was 108 % of control; the T/C under setting [1] was 110 % of control; the T/C under setting [2] was 89 % of control; the T/C under setting [3] was 104 % of control.

In the case of `Cn1c(=O)c2nncnc2n(C)c1=O`, the T/C is, setting by setting: under setting [1], 94 % of control; under setting [2], 96 % of control; under setting [3], 94 % of control.

Regarding `N#CCS(=O)(=O)c1cccc[n+]1[O-]`, the T/C under setting [1] is 99 % of control, the T/C under setting [2] is 99 % of control and the T/C under setting [3] was 93 % of control.

In the case of `CC(C)N1C(=O)N(Cl)C2C1N(Cl)C(=O)N2Cl` (configuration not stated), the T/C (dose: 6.25 mg/kg/injection, vehicle: sodium bicarbonate) was 102 % of control; the T/C (dose: 12.5 mg/kg/injection, vehicle: sodium bicarbonate) is 107 % of control; the T/C (dose: 25.0 mg/kg/injection, vehicle: sodium bicarbonate) was 94 % of control; the T/C (dose: 50.0 mg/kg/injection, vehicle: saline) is 91 % of control; the T/C (dose: 50.0 mg/kg/injection, vehicle: sodium bicarbonate) is 114 % of control; the T/C (dose: 100.0 mg/kg/injection, vehicle: sodium bicarbonate) is 109 % of control.

In the case of `C=C1C(O)C2(O)OCC34C(CC5C(C)=CC(=O)C(O)C5(C)C23)OC(=O)C(OC(=O)C/C=C(\C)CCCCC)C14` (configuration not stated), the T/C (dose: 1.0 mg/kg/injection, vehicle: saline + alcohol) is 105 % of control and 107 % of control; the T/C (dose: 2.0 mg/kg/injection, vehicle: saline + alcohol) was 104 % of control and 122 % of control; the T/C (dose: 4.0 mg/kg/injection, vehicle: saline + alcohol) is 102 % of control and 108 % of control.

Consider `N#Cc1c(-c2ccccc2)c(-c2ccccc2)nn(CC(=O)O)c1=O`, for which the T/C runs as follows: (dose: 50.0 mg/kg/injection, vehicle: distilled water + Tween-80) 102 % of control; (dose: 100.0 mg/kg/injection, vehicle: distilled water + Tween-80) 102 % of control; (dose: 200.0 mg/kg/injection, vehicle: distilled water + Tween-80) 97 % of control.

Regarding `[N-]=[N+]=NCCOCn1ccc(=O)[nH]c1=O`, the T/C (dose: 37.5 mg/kg/injection, vehicle: suspension in saline) is 102 % of control; the T/C (dose: 75.0 mg/kg/injection, vehicle: suspension in saline) was 107 % of control; the T/C (dose: 150.0 mg/kg/injection, vehicle: suspension in saline) is 109 % of control; the T/C (dose: 300.0 mg/kg/injection, vehicle: suspension in saline) was 103 % of control; the T/C (dose: 600.0 mg/kg/injection, vehicle: suspension in saline) was 98 % of control.

Consider `CC(=O)OCc1cc(=O)n(C)c2c3c4c(cc12)c(C)cc(=O)n4CO3`, for which the T/C is 103 % of control (dose: 10.0 mg/kg/injection, vehicle: Klucel (hydroxypropylcellulose) (HPC)); 112 % of control (dose: 20.0 mg/kg/injection, vehicle: Klucel (hydroxypropylcellulose) (HPC)); 104 % of control (dose: 40.0 mg/kg/injection, vehicle: Klucel (hydroxypropylcellulose) (HPC)); 111 % of control (dose: 80.0 mg/kg/injection, vehicle: Klucel (hydroxypropylcellulose) (HPC)).

Turning to `CCNC(=O)[B-][N+](C)(C)C`, the T/C under setting [1] is 96 % of control, the T/C under setting [2] was 104 % of control, the T/C under setting [3] was 102 % of control and the T/C under setting [4] is 92 % of control.

As for `CCOC(=O)C1=C(Nc2ccc(OC)cc2)C(N)=NC1=N`, the T/C is 102 % of control (dose: 12.5 mg/kg/injection, vehicle: suspension in saline); 100 % of control (dose: 25.0 mg/kg/injection, vehicle: suspension in saline); 101 % of control under setting [1]; 111 % of control (dose: 50.0 mg/kg/injection, vehicle: suspension in saline); 99 % of control under setting [2]; 101 % of control (dose: 100.0 mg/kg/injection, vehicle: suspension in saline). Besides, the T/C is, setting by setting: under setting [3], 102 % of control; (dose: 200.0 mg/kg/injection, vehicle: suspension in saline) 105 % of control; under setting [4], 106 % of control; (dose: 800.0 mg/kg/injection, vehicle: saline with Tween-80) 101 % of control.

For `C/C(=N\NC(=S)N1CCN(c2ccccn2)CC1)c1ccccn1`, the T/C is 98 % of control (dose: 12.5 mg/kg/injection, vehicle: Klucel (hydroxypropylcellulose) (HPC)); 103 % of control (dose: 25.0 mg/kg/injection, vehicle: Klucel (hydroxypropylcellulose) (HPC)); 93 % of control (dose: 50.0 mg/kg/injection, vehicle: Klucel (hydroxypropylcellulose) (HPC)).
